The values that follow come from US8426392B2, “Method for providing emergency contraception” (Laboratoire HRA-Pharma, priority 2009, dated 2013).

For data set [1] the following is noted: in vivo.
Experimental: (§1) A specific food interaction study was conducted, in which the pharmacokinetic profile of ulipristal acetate and its main metabolite 3877A was evaluated after single administration of a 30-mg ulipristal acetate micronized tablet either under fasted conditions or after a high-fat breakfast. The main pharmacokinetic parameters were evaluated, including maximum plasma concentration (Cmax), area under the drug concentration curve (AUC) from time 0 to time of last determinable concentration or to infinity, and the time to maximum plasma concentration (tmax).
(§2) A second oral administration followed, after at least a 21-day wash-out period.
(§3) Analysis of Cmax and AUC was carried out by analysis of variance using PROC MIXED® program on the logarithmically transformed data. The 90% standard confidence interval limits for relative treatment differences was calculated by geometric means based on logarithmic transformation of the intra-individual ratios of Cmax and AUC.
(§4) The analysis of tmax was based on Wilocoxon-Mann-Whitney test adapted according to the methodology of Koch. Estimate for treatment difference and 90% confidence interval was estimated according to the method of Moses.
The conditions of data set [2]: used within 72 hours of unprotected intercourse; cited from earlier work.
The nature of data set [3]: Food interaction study: bioavailability of a single 30 mg oral dose of ulipristal acetate in fed and fasting states. The settings on record: for AUC(0-t) / AUC(0-inf) / Cmax / Tmax / half-life: female, human, plasma, oral, 30 mg; for AUC(0-t): AUC0-t; for AUC(0-inf): AUC0-∞.
Experimental: as §1, §2, §3, §4
Data set [4] is described as follows: Phase III pregnancy rates after 30 mg ulipristal acetate tablet by food intake prior to treatment. In kind it is in vivo, human. The settings on record: for Observed PR (pregnancy rate): 30 mg tablet. The procedure: With respect to clinical efficacy, data on last food intake prior to study drug was collected in a subset of subjects (n=1185) included in the phase III program of development of the 30 mg ulipristal acetate tablet for emergency contraception. Pregnancy rates (PR) were compared between women who reported having eaten within two hours prior to treatment intake versus those who reported having eaten only earlier.

[5] abbreviates: Fed vs. Fasted condition, ANOVA.
Where [6] appears, read: fasted, single 30 mg tablet, mean ± SD.
The mark [7] stands for this setting: fed (high-fat breakfast), single 30 mg tablet, mean ± SD.

Entries after “also recorded” stand apart in the source; their conditions may differ. Where two headings read alike, the source gives them in different places. Marks after values point to notes of the source that are not given here.

Regarding `CNc1ccc([C@H]2C[C@@]3(C)[C@@H](CC[C@]3(OC(C)=O)C(C)=O)[C@@H]3CCC4=CC(=O)CCC4=C32)cc1` [3877A, 17α-acetoxy-11β-[4-N-methylamino-phenyl)-19-norpregna-4,9-diene-3,20-dione], in data set [1] (human), the terminal elimination half-life entry was “around 30 h”. In addition, in data set [1] (human, 30 mg), the “AUC0-∞” value turned out to be 265 ng·h/mL; the AUC(0-t) (in general, the area under the concentration-time curve up to a stated or last time point) came to 244 ng·h/mL; the Cmax (commonly the peak of the concentration-time curve) amounted to 86.5 ng/mL; the Tmax (usually the time from dosing to the highest level) is listed as 0.75 h. Besides, in data set [1] (human, 30 mg), the t1/2 was 30.0 ± 7.56^c h. Also, in data set [1], the “AUC0-t, point estimate of the fed/fasted ratio of least squares geometric means” value is 121.72^a %; the “AUC0-∞, point estimate of the fed/fasted ratio of least squares geometric means” value is listed as 118.73^c %; the “Cmax, point estimate of the fed/fasted ratio of least squares geometric means” value was 62.45%.
Turning to `CC(=O)O[C@]1(C(C)=O)CC[C@H]2[C@@H]3CCC4=CC(=O)CCC4=C3[C@@H](c3ccc(N(C)C)cc3)C[C@@]21C` [ulipristal acetate, 17α-acetoxy-11β-[4-N,N-dimethylamino-phenyl)-19-norpregna-4,9-diene-3,20-dione], the “efficacy for preventing pregnancy compared with levonorgestrel” value in data set [2] is recorded as “as efficacious as levonorgestrel”. The “AUC0-t, point estimate of the fed/fasted ratio of least squares geometric means” value in data set [3] (setting [5]) is listed as 123.30^a %. The “AUC0-∞, point estimate of the fed/fasted ratio of least squares geometric means” value in data set [3] (setting [5]) is given as 126.20^b %. In addition, in data set [3] (setting [5]), the “Cmax, point estimate of the fed/fasted ratio of least squares geometric means” value is on record as 56.25%. In addition, in data set [3] (compared with administration in a fasted state), the “higher mean AUC0-∞ with a high-fat breakfast” value came out at 25%. The tlag in data set [3] (fasted, single 30 mg tablet, median (range)) is on record as 0.00 (0.00-0.00) h; in data set [3] (fed (high-fat breakfast), single 30 mg tablet, median (range)), 0.00 (0.00-0.50) h. For the same compound, the results for the area under the curve AUC(0-t) in data set [3] (setting [6]) and in data set [3] (setting [7]) were 467 ng·h/mL and 566 ng·h/mL, respectively. The results for the AUC(0-inf) in data set [3] (setting [6]) and in data set [3] (setting [7]) were 474 ng·h/mL and 608 ng·h/mL, respectively. Besides, the Cmax in data set [3] (fasted, single 30 mg ulipristal acetate micronized tablet, healthy women, mean ± SD) came out at 173 ng/mL; in data set [3] (fed (high-fat breakfast), single 30 mg ulipristal acetate tablet, mean ± SD), 99.2 ng/mL. Moreover, the time to peak (Tmax) in data set [3] (Tmax (median), fasted state, as stated for the printed matter) is 0.75 h; in data set [3] (Tmax (median), with a high-fat breakfast, as stated for the printed matter) it was 3 h; in data set [3] (tmax, fasted, single 30 mg tablet, median (range)), 0.75 h; in data set [3] (tmax, fed (high-fat breakfast), single 30 mg tablet, median (range)), 3 h. The half-life – broadly, the time needed for the level to fall by half in the phase considered – in data set [3] (t1/2, fasted, single 30 mg tablet, mean ± SD) was 37.2 ± 7.19 h; in data set [3] (t1/2, fed (high-fat breakfast), single 30 mg tablet, mean ± SD) it was 36 ± 7.78 h; in data set [3] (terminal elimination half-life, average, independently of the food condition), roughly 36 h. In addition, the “Expected PR (pregnancy rate)” value in data set [4] (food intake 2 h or more before ulipristal acetate intake) is 5.56%; in data set [4] (food intake less than 2 h before ulipristal acetate intake) it was 5.27%. Besides, the “Observed PR (pregnancy rate)” value in data set [4] (food intake 2 h or more before ulipristal acetate intake, n=905) is 1.44%; in data set [4] (food intake less than 2 h before ulipristal acetate intake, n=279), 1.79%. Further, in data set [4] (phase III trials, eaten within two hours prior to intake versus earlier), the “effect of food on efficacy in emergency contraception (pregnancy rate)” value is listed as “the same therapeutic efficacy; also recorded: no significant effect”.
